{"source": "patent US11491245B2", "about": "“Gadolinium chelate compounds for use in magnetic resonance imaging” (BAYER PHARMA AKTIENGESELLSCHAFT, priority 2015, dated 2022)", "key": {"[1]": {"test_system": "GS9L brain tumors", "test": "Contrast-enhanced MRI of brain tumors in rats", "assay_type": "in vivo, male Fisher rats (F344)", "conditions": "GS9L rat brain tumors, 0.1 mmol Gd/kg bw vs Reference compound 1 0.1 mmol Gd/kg bw, FIG. 11A"}, "[2]": {"test": "Excretion and residual organ gadolinium concentration", "assay_type": "in vivo, male rats (Han-Wistar)", "conditions": "male rats, 0.1 mmol Gd/kg i.v.", "protocol": "The excretion and organ distribution of Example 3 were determined in male rats (Han-Wistar, 100-110 g, n=3). The compound was administered as a sterile aqueous solution (54 mmol Gd/L) as a bolus in the tail vein of the animals. The dose was 0.1 mmol Gd/kg. Urine was collected in the following time periods 0-1 h, 1-3 h, 3-6 h, 6-24 h, 1-2 d and 2-5 d post injection and feces 0-1 d, 1-2 d and 2-5 d post injection. As a control, 3 animals were treated in the same way with Gadovist®, a low molecular weight contrast agent. On day 7 the animals were sacrificed and the following organs were excised: blood, liver, kidney, spleen, heart, lung, brain, mesenteric lymph nodes, muscle, skin, stomach, gut, bone and bone marrow. The remaining carcass was freeze dried and ground to a fine powder. The Gd concentration in the organs and the carcass was determined by ICP-MS (ICP-MS Agilent 7500a, Waldbronn, Germany). The Example 3 is excreted quickly via the kidneys. After 3 h 95.8%±3.4% of the injected dose was found in urine and 96.9%±3.7% after 5 days. About 1.4%±0.6% was excreted via the feces. Less than 0.5% of the administered dose was present in the body 7 days after the injection. The individual organs contained less than 0.03% of the injected dose, except the kidney which is the excretion organ."}, "[3]": {"test": "Contrast-enhanced magnetic resonance angiography (CE-MRA)", "assay_type": "in vivo, male New Zealand white rabbits", "conditions": "rabbits", "protocol": "Reference compound 1 (Gadovist®), as an approved representative of the Gadolinium-based MRI contrast agents, was used in both dose protocols (100 μmol Gd/kg bw and 30 μmol Gd/kg bw) and compared to Example 3 (30 μmol Gd/kg bw).\nThe contrast-enhanced magnetic resonance angiography study was performed at a clinical 1.5 T Scanner (Magnetom Avanto, Siemens Healthcare, Erlangen, Germany). For optimal signal exploitation, a standard spine coil was used for the data acquisition. The study was done using male New Zealand white rabbits (weight 2.5-2.9 kg, n=6, Charles River Kisslegg). All animals were initially anesthetized using a body weight-adjusted intramuscular injection of a mixture (1+2) of xylazine hydrochloride (20 mg/mL, Rompun 2%, Bayer Vital GmbH, Leverkusen, Germany) and ketamine hydrochloride (100 mg/mL, Ketavet, Pfizer, Pharmacia GmbH, Berlin, Germany) using 1 mL/kg body weight. […]\nBased on a localizer sequence oriented in coronal, axial, and sagittal directions, the anatomic course of the aorta was acquired. The time to peak was determined using a small intravenous test bolus (0.25 mL/2.5-2.7 kg or 0.3 mL/2.8-2.9 kg bw, Reference compound 1) and a 3D FLASH sequence (test bolus sequence: repetition time: 36.4 millisecond, echo time 1.45 millisecond, flip angle: 30 degree, spatial resolution: 1.0×0.8×17 mm). […]"}, "[4]": {"test": "Water solubility", "assay_type": "physicochemical", "conditions": "10 mM Tris-HCl buffer, 20° C.", "protocol": "The water solubility of the compounds was determined at room temperature (20° C.) in 0.5 mL buffer solution (10 mM Tris-HCl) in the microcentrifuge tubes (Eppendorf, 2.0 mL safe-lock caps). The solid compound was added stepwise to the buffer solution. The suspension was mixed using a shaker (Heidolph Reax 2000) and treated 5 min in an ultrasound bath (Bandelin, Sonorex Super RK255H) The suspension was stored at room temperature (20° C.) over night and final Gadolinium concentration was determined by inductively coupled plasma mass spectrometry (ICP-MS)."}}}
{"smiles": "CC(C(=O)NCC(=O)NCC(CNC(=O)CNC(=O)C(C)N1CCN(CC(=O)[O-])CCN(CC(=O)[O-])CCN(CC(=O)[O-])CC1)(CNC(=O)CNC(=O)C(C)N1CCN(CC(=O)[O-])CCN(CC(=O)[O-])CCN(CC(=O)[O-])CC1)CNC(=O)CNC(=O)C(C)N1CCN(CC(=O)[O-])CCN(CC(=O)[O-])CCN(CC(=O)[O-])CC1)N1CCN(CC(=O)[O-])CCN(CC(=O)[O-])CCN(CC(=O)[O-])CC1.[Gd+3].[Gd+3].[Gd+3].[Gd+3]", "note": "(centres unmarked) [Example 3, Tetragadolinium [4,10-bis(carboxylatomethyl)-7-{3,6,12,15-tetraoxo-16-[4,7,10-tris-(carboxylatomethyl)-1,4,7,10-tetraazacyclododecan-1-yl]-9,9-bis({[({2-[4,7,10-tris-(carboxylatomethyl)-1,4,7,10-tetraazacyclododecan-1-yl]propanoyl}amino)acetyl]-amino}methyl)-4,7,11,14-tetraazaheptadecan-2-yl}-1,4,7,10-tetraazacyclododecan-1-yl]acetate]", "values": [{"measurement": "lesion-to-brain contrast at the same dose", "setting": "[1]", "result": "higher lesion-to-brain contrast and an excellent demarcation of the tumor rim"}, {"measurement": "Feces excretion 0-1 d post injection", "setting": "[2]", "result": "1.13 ± 0.62", "unit": "% Dose"}, {"measurement": "Feces excretion 1-2 d post injection", "setting": "[2]", "result": "0.10 ± 0.02", "unit": "% Dose"}, {"measurement": "Feces excretion 2-5 d post injection", "setting": "[2]", "result": "0.13 ± 0.01", "unit": "% Dose"}, {"measurement": "Total recovery", "setting": "[2]", "result": "98.8 ± 3.1", "unit": "% Dose"}, {"measurement": "Urine excretion 0-1 h post injection", "setting": "[2]", "result": "90.36 ± 4.4", "unit": "% Dose"}, {"measurement": "Urine excretion 1-3 h post injection", "setting": "[2]", "result": "5.43 ± 1.04", "unit": "% Dose"}, {"measurement": "Urine excretion 1-2 d post injection", "setting": "[2]", "result": "0.14 ± 0.01", "unit": "% Dose"}, {"measurement": "Urine excretion 2-5 d post injection", "setting": "[2]", "result": "0.34 ± 0.03", "unit": "% Dose"}, {"measurement": "Urine excretion 3-6 h post injection", "setting": "[2]", "result": "0.46 ± 0.38", "unit": "% Dose"}, {"measurement": "Urine excretion 6-24 h post injection", "setting": "[2]", "result": "0.17 ± 0.02", "unit": "% Dose"}, {"measurement": "administered dose present in the body 7 days after the injection", "setting": "[2]", "result": "Less than 0.5%"}, {"measurement": "excreted via the feces", "setting": "[2]", "result": "About 1.4%"}, {"measurement": "Σ organs and carcass 7 d post injection", "setting": "[2]", "result": "0.49 ± 0.01", "unit": "% Dose"}, {"measurement": "injected dose in the individual organs (except the kidney)", "setting": "[2]; 7 days", "result": "less than 0.03%"}, {"measurement": "injected dose found in urine after 3 h", "setting": "[2]; cumulative", "result": 95.8, "unit": "%"}, {"measurement": "injected dose found in urine after 5 days", "setting": "[2]; cumulative", "result": 96.9, "unit": "%"}, {"measurement": "image quality of the low dose protocol", "setting": "[3]; 30 μmol Gd/kg bw vs 30 μmol Gd/kg bw Reference compound 1, 1.5 T", "result": "significantly better than the low dose protocol of Reference compound 1"}, {"measurement": "contrast enhancement of the low dose protocol", "setting": "[3]; 30 μmol Gd/kg bw vs 100 μmol Gd/kg bw Reference compound 1, 1.5 T", "result": "comparable to that of the standard dose of Reference compound 1"}, {"measurement": "Solubility", "setting": "[4]", "result": ">1400", "unit": "mmol Gd/L"}]}
